{
  "source": "patent US20220177510A1",
  "about": "“DERIVATIVES OF GYLCERO-MANNO-HEPTOSE ADP FOR USE IN MODULATING IMMUNE RESPONSE” (priority 2019, published 2022)",
  "key": {"ALPK1 [1]": {"target": "T1, ALPK1 (Homo sapiens, UniProt Q96QP1)", "T1 construct": "endogenous in cells; host or cells: HEK293 (A1); HEK293 stably expressing an NF-kB-alkaline phosphatase reporter (A2)", "T1 sequence (Q96QP1 whole entry)": "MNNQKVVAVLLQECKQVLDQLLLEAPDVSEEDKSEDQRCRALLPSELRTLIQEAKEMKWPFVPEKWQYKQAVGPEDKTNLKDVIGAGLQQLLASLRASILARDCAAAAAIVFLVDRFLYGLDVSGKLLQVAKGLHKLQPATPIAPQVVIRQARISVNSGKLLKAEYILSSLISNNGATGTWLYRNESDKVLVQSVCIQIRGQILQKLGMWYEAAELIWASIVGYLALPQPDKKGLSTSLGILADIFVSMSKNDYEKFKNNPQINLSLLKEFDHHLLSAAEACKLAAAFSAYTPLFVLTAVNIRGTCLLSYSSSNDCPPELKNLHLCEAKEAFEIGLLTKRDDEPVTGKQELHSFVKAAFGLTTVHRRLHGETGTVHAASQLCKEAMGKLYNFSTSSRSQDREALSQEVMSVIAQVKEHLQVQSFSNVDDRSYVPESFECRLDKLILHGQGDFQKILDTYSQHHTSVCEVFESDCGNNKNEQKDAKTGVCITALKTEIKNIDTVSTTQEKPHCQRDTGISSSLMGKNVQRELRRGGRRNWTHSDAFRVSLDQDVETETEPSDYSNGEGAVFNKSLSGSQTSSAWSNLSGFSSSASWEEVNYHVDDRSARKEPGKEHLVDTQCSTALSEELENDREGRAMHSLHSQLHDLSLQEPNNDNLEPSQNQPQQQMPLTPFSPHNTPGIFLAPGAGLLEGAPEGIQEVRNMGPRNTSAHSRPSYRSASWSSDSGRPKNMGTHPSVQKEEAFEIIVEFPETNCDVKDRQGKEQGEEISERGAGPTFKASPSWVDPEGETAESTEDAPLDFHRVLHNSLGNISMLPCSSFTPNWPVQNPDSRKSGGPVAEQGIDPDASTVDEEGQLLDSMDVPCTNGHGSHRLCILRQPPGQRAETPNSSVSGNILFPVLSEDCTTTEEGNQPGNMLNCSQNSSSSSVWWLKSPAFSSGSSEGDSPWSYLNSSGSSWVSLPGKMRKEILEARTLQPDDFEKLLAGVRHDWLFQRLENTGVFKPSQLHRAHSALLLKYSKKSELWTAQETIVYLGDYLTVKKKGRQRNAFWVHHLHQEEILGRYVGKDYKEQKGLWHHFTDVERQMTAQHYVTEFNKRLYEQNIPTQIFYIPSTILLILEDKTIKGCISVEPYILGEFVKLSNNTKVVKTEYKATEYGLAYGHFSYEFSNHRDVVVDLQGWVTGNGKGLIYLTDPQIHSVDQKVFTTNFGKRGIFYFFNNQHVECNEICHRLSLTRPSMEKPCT", "assay": "IL-8 secretion by HEK293 cells (IL-8 ELISA) as indication of ALPK1 activation", "assay_type": "cell-based", "details": "HEK293 cells treated 4 hours, FIG. 6, Table 2A", "description": "HEK293 cells were treated with H1b-ADP derivatives (A1, A2, A3, and A4) or with Compound 28 for 4 hours followed by analysis of IL-8 secretion using an IL-8 enzyme linked immunoassay (ELISA). IL-8 secretion is an indication of ALPK1 activation. The EC50 of each compound was determined using GraphPad Prism."}, "ALPK1 [2]": {"target": "T1, ALPK1", "assay": "NF-kB promoter driven alkaline phosphatase reporter in HEK293 cells (pNPP assay)", "assay_type": "cell-based", "details": "HEK293-NFkB-AP reporter cells treated 7 hours", "description": "NF-kB activation was assayed using HEK293 cells stably expressing an NF-kB reporter construct comprising an NF-kB promoter driving expression of alkaline phosphatase (AP). In this system, activation of NF-kB promoter activity drives the expression of AP which is detected using a chromogenic substrate, para-nitrophenyl phosphate (pNPP).\nTo assess the ALPK1 agonist activity of test compounds, the HEK293 cells were seeded in 96-well plates and allowed to attach overnight. Cells were then exposed to graded concentrations of compounds A1, A2, A3, A4, A18, A26, A27, A28, and A30. Compound 28 was included as a reference. Following treatment, cell culture supernatants were collected and analyzed for alkaline phosphatase activity using the pNPP assay. The results are shown in FIGS. 7A-7B and Table 2B-C below. The EC50 for each compound was determined using GraphPad Prism."}, "HBV": {"tested_on": "HBV", "assay": "HBV-AAV mouse model: HBV DNA qPCR, serum HBsAg and HBeAg ELISA", "assay_type": "in vivo", "details": "0.1 mg/kg intraperitoneal on days 28 and 31, serum at day 35, versus PBS control", "description": "Administration of Compound 28 (0.1 mg/kg, twice weekly “BIW”) led to downregulation of HBV DNA expression and a decrease in serum levels of HBsAg, and HBeAg in the HBV-AAV mouse model. At day 1, male C57BL/6 mice were intravenously injected with AAV8-1.3HBV (1×10^11 v/g). After days 28 and 31, each mouse was then intraperitoneally injected with 0.1 mg/kg compound 28 or PBS control. At day 35, mouse serum was collected for HBV DNA qPCR analysis, HBsAg and HBeAg serum analysis by ELISA."}, "HBsAg, adw": {"tested_on": "HBsAg, adw", "assay": "Immunization of mice with HBsAg, adw with or without compound; specific total IgG serum titers by ELISA", "assay_type": "in vivo, mouse", "description": "Eight-week-old C57BL/6J mice (females) were intradermally (I.D.) immunized at day 0 with HBsAg, adw (1 mg/dose), or HBsAg, adw at 1 mg/dose combined with compound 28 (1 nmol/dose). Mice were boosted with a second immunization at day 14 and the sera collected at day 35. HBsAg, adw-specific total IgG serum titers (OD450) were determined by ELISA. Anti-HBsAg, adw IgG titers were more than 2× higher when HBsAg, adw was combined with 1 nmol/dose of compound 28 than when HBsAg, adw was injected alone (FIG. 3)."}, "[3]": {"tested_on": "eosinophils, dendritic cells, neutrophils", "assay": "Porcine pancreas elastase (PPE) induced immune cells in bronchoalveolar lavage, flow cytometry", "assay_type": "in vivo, mouse", "details": "30 μg/dose PPE, BAL day 2", "description": "Eight-week-old male C57BL/6 mice were grouped (N=8/group) and were intraperitoneally (I.P.) injected with compound 28 at 0, 4, or 20 nmol/dose on days −1, 0, and 1. In addition, mice were intratracheally (I.Tr.) administrated with 0 or 30 μg/dose of porcine pancreas elastase (PPE) dissolved in 50 μL saline on day 0. Mice were sacrificed on day 2 and the immune cells were collected by bronchoalveolar lavage (BAL). Cells were then subjected to fluorophore-conjugated antibody staining and analyzed by flow cytometry. Data were processed with a FlowJo […] (Treestar). Immune cells were gated as singlets>live cells>CD11c^highSiglecF^lowMHCII^high (dendritic cells), CD11c^lowCD11b^highLy-6G^high (neutrophils), and CD11c^lowCD11b^highLy-6G^lowSiglecF^high (eosinophils)."}, "ALPK1 [4]": {"target": "T2, ALPK1 (Mus musculus, UniProt Q9CXB8)", "T2 construct": "C57/B6 mice (n=3 mice/group) were injected subcutaneously; endogenous in cells; host or cells: C57/B6 mice, whole animal", "T2 sequence (Q9CXB8 1-1231)": "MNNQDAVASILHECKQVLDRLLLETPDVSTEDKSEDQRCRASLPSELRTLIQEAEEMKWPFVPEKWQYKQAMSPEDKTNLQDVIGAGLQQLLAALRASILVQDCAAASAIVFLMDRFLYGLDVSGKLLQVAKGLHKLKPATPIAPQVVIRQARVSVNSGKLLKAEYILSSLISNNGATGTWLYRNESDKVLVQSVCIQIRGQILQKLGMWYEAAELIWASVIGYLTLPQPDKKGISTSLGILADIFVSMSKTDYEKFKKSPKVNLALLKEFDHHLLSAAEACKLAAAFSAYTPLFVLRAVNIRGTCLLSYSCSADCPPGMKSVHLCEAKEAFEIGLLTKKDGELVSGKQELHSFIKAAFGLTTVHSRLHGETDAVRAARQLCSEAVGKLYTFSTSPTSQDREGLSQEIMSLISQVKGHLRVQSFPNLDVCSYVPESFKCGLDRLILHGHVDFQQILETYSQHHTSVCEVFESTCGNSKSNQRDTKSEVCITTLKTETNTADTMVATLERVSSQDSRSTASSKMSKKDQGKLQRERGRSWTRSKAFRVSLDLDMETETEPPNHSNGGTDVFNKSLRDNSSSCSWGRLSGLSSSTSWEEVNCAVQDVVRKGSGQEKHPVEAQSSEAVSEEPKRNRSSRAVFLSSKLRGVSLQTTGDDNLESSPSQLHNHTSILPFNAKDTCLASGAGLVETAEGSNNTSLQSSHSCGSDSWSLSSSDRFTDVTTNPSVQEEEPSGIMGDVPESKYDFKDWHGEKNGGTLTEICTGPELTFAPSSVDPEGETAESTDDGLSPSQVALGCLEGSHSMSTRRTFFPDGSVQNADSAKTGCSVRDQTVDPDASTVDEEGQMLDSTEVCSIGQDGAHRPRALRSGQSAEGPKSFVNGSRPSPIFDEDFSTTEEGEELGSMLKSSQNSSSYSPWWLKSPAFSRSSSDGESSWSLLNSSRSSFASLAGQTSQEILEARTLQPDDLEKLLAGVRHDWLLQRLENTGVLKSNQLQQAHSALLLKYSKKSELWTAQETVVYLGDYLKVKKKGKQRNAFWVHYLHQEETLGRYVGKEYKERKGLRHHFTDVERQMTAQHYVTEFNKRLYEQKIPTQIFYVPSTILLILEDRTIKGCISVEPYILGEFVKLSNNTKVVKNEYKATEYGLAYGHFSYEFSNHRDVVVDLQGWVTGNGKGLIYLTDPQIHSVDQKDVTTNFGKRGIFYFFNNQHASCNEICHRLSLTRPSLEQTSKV", "assay": "Serum RANTES (CCL5) levels after subcutaneous injection as measure of ALPK1 activation in vivo", "details": "10 nmole subcutaneous, serum at 24 hours or 48 hours", "description": "The ability of Compounds 15 and 28 to stimulate ALPK1 activation in vivo was tested by monitoring serum levels of the chemokine RANTES (CCL5), which is elevated upon activation of ALPK1. Briefly, C57/B6 mice (n=3 mice/group) were injected subcutaneously with PBS (negative control) or 10 nmole of Compound 15 or Compound 28. Serum was collected at 24 hours or 48 hours post injection."}, "[5]": {"details": "4 nmol/dose intraperitoneal days -1, 0, 1"}, "[6]": {"details": "4 nmol/dose intraperitoneal days -1, 0, 1, listed as compound 28"}, "[7]": {"details": "20 nmol/dose intraperitoneal days -1, 0, 1"}, "[8]": {"details": "20 nmol/dose intraperitoneal days -1, 0, 1, listed as compound 28"}},
  "note": "Entries after “also recorded” stand apart in the source; their conditions may differ.",
  "data": [
    {"smiles": "CCCCCCCCC(=O)OC[C@H](F)C1O[C@@H](OP(=O)(O)OP(O)(=S)OC[C@H]2O[C@@H](n3cnc4c(N)ncnc43)C(O)C2O)C(OC(C)=O)C(OC(C)=O)[C@@H]1OC(C)=O", "note": "(stereo partly drawn) [Compound A4, (2S,3S,4S,5S,6S)-2-(((((((2R,3S,4R,5R)-5-(6-amino-9H-purin-9-yl)-3,4-dihydroxytetrahydrofuran-2-yl)methoxy)(hydroxy)phosphorothioyl)oxy)(hydroxy)phosphoryl)oxy)-6-((S)-1-fluoro-2-(nonanoyloxy)ethyl)tetrahydro-2H-pyran-3,4,5-triyl triacetate]", "values": [
      {"measurement": "EC50", "setting": "ALPK1 [1]", "value": 19.2, "unit": "nM"},
      {"measurement": "EC50", "setting": "ALPK1 [2]; FIG. 7A, Table 2B", "value": 19.1, "unit": "nM"}
    ]},
    {"smiles": "CCCCCCCCCCCCCCCCCC(=O)OC[C@H](F)[C@H]1O[C@@H](OP(=O)(O)OP(O)(=S)OC[C@H]2O[C@@H](n3cnc4c(N)ncnc43)[C@H](O)[C@@H]2O)[C@@H](OC(C)=O)[C@@H](OC(C)=O)[C@@H]1OC(C)=O", "note": "(stereo partly drawn) [Compound A1, (2S,3S,4S,5S,6S)-2-(((((((2R,3S,4R,5R)-5-(6-amino-9H-purin-9-yl)-3,4-dihydroxytetrahydrofuran-2-yl)methoxy)(hydroxy)phosphorothioyl)oxy)(hydroxy)phosphoryl)oxy)-6-((S)-1-fluoro-2-(stearoyloxy)ethyl)tetrahydro-2H-pyran-3,4,5-triyl triacetate]", "values": [
      {"measurement": "EC50", "setting": "ALPK1 [1]", "value": 3.1, "unit": "nM"},
      {"measurement": "EC50", "setting": "ALPK1 [2]; FIG. 7A, Table 2B", "value": 11, "unit": "nM"}
    ]},
    {"smiles": "CC(=O)OC[C@H](F)C1O[C@@H](OP(=O)(O)OP(O)(=S)OC[C@H]2O[C@@H](n3cnc4c(N)ncnc43)C(O)C2O)C(OC(C)=O)C(OC(C)=O)[C@@H]1OC(C)=O", "note": "(stereo partly shown) [Compound 28]", "values": [
      {"measurement": "EC50", "setting": "ALPK1 [1]", "value": 45, "unit": "nM"},
      {"measurement": "EC50", "setting": "ALPK1 [2]; FIG. 7A, Table 2B", "value": 45, "unit": "nM"},
      {"measurement": "EC50", "setting": "ALPK1 [2]; FIG. 7B, Table 2C", "value": 67, "unit": "nM"},
      {"measurement": "HBV DNA expression", "setting": "HBV", "value": "marked decrease; also recorded: down-regulation"},
      {"measurement": "serum levels of HBeAg", "setting": "HBV", "value": "marked decrease; also recorded: lower levels"},
      {"measurement": "serum levels of HBsAg", "setting": "HBV", "value": "marked decrease; also recorded: lower levels"},
      {"measurement": "IgG response against HBsAg, adw (in words)", "setting": "HBsAg, adw; 1 nmol with HBsAg, adw versus HBsAg, adw alone", "value": "increased IgG response"},
      {"measurement": "Anti-HBsAg, adw IgG titers, HBsAg, adw combined with compound relative to HBsAg, adw alone", "setting": "HBsAg, adw; 1 nmol/dose intradermal, days 0 and 14, sera day 35", "value": "more than 2 ×"},
      {"measurement": "production of dendritic cells after PPE administration", "setting": "[3]; [5]", "value": "decrease"},
      {"measurement": "production of eosinophils after PPE administration", "setting": "[3]; [5]", "value": "decrease"},
      {"measurement": "production of neutrophils after PPE administration", "setting": "[3]; [5]", "value": "decrease"},
      {"measurement": "production of dendritic cells after PPE administration", "setting": "[3]; [6]", "value": "significantly suppressed"},
      {"measurement": "production of eosinophils after PPE administration", "setting": "[3]; [6]", "value": "significantly suppressed"},
      {"measurement": "production of neutrophils after PPE administration", "setting": "[3]; [6]", "value": "only at the 20 nmol/dose level"},
      {"measurement": "production of dendritic cells after PPE administration", "setting": "[3]; [7]", "value": "decrease"},
      {"measurement": "production of eosinophils after PPE administration", "setting": "[3]; [7]", "value": "decrease"},
      {"measurement": "production of neutrophils after PPE administration", "setting": "[3]; [7]", "value": "decrease"},
      {"measurement": "production of dendritic cells after PPE administration", "setting": "[3]; [8]", "value": "significantly suppressed"},
      {"measurement": "production of eosinophils after PPE administration", "setting": "[3]; [8]", "value": "significantly suppressed"},
      {"measurement": "production of neutrophils after PPE administration", "setting": "[3]; [8]", "value": "suppressed"},
      {"measurement": "duration of immune activation (serum RANTES), compared to Compound 15", "setting": "ALPK1 [4]", "value": "longer duration of immune activation"}
    ]}
  ]
}
